As a reminder, the IC50 is the concentration at which inhibition is half-maximal.

This test has as its target T1, USP25 (USP25-His6, Boston Biochem E-546) (Homo sapiens, UniProt Q9UHP3).
T1 construct: His6; purchased Boston Biochem E-546
T1 sequence (Q9UHP3 1-1055): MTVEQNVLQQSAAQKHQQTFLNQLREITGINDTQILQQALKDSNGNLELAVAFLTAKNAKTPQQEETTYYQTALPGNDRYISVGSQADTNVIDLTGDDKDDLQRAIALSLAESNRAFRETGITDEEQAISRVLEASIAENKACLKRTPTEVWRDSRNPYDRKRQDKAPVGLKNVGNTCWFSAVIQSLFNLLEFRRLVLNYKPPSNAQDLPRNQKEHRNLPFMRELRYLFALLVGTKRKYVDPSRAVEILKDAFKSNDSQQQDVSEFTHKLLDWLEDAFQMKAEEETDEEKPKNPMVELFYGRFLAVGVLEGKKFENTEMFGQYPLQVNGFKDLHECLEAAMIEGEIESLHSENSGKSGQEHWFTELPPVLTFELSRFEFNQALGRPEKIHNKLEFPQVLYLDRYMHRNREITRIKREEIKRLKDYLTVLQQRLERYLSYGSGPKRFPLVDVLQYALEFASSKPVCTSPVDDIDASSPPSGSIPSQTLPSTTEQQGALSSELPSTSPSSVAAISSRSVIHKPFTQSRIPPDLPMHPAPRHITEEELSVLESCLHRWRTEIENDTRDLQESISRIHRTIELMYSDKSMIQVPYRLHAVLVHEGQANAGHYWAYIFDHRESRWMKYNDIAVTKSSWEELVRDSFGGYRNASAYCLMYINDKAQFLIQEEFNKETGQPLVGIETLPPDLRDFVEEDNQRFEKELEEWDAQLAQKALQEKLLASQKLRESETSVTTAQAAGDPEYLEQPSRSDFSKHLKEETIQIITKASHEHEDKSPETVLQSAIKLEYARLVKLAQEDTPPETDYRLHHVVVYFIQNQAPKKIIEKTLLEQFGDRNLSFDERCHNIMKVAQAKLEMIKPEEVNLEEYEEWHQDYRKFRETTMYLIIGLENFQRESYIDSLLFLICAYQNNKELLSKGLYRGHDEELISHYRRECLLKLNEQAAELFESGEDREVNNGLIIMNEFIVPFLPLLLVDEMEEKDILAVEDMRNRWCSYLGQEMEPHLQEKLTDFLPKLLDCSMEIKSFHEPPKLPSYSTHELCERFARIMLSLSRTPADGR
Briefly: Ubiquitin-Rhodamine 110 Assay for USP25 Activity, Example A-2. The note with it: Ubiquitin-Rhodamine 110 assay, Example A-2; read-out: USP25 A-2 IC50 range. The class given is biochemical. The essentials: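 Read-out: Rh110 fluorescence (ex 485, em 535 nm) after 45 min RT turnover of 25 nM Ub-Rh110 by 75 pM USP25-His6, quenched with 10 mM citric acid. Compounds at 25 μM–1.3 nM, preincubated 30 min with enzyme. IC50 from 4-parameter logistic fit.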
As to `CO[C@H]1CCN(c2ccc3c(c2)OC[C@H](NC(=O)c2sc4nc(C)cc(C)c4c2N)C3)C[C@@H]1N` [Example 317, 3-amino-N-[(3R)-7-[(3S,4S)-3-amino-4-methoxypiperidin-1-yl]-3,4-dihydro-2H-1-benzopyran-3-yl]-4,6-dimethylthieno[2,3-b]pyridine-2-carboxamide], the IC50 was 200 to 2000 nM.

Take `Cc1ccc2c(N)c(C(=O)N[C@H]3COc4cc(N5CC[C@@H](N)C5)ccc4C3)sc2n1` [Example 288, 3-amino-N-[(3R)-7-[(3R)-3-aminopyrrolidin-1-yl]-3,4-dihydro-2H-1-benzopyran-3-yl]-6-methylthieno[2,3-b]pyridine-2-carboxamide]: the IC50 lay in the range of 200 to 2000 nM. Under `COC[C@@H]1CN(c2ccc3c(n2)CC[C@H](NC(=O)c2sc4nc(C)cnc4c2N)C3)C[C@@H]1N` [Example 298, 7-amino-N-[(6S)-2-[(3R,4R)-3-amino-4-(methoxymethyl)pyrrolidin-1-yl]-5,6,7,8-tetrahydroquinolin-6-yl]-3-methylthieno[2,3-b]pyrazine-6-carboxamide] stands more than 2000 nM. Regarding `Cc1ccc2c(N)c(C(=O)N[C@H]3CCc4nc(N5C[C@H]6NCCC(F)(F)[C@H]6C5)ccc4C3)sc2n1` [Example 329, N-[(6S)-2-[(4aS,7aS)-4,4-difluoro-octahydro-1H-pyrrolo[3,4-b]pyridin-6-yl]-5,6,7,8-tetrahydroquinolin-6-yl]-3-amino-6-methylthieno[2,3-b]pyridine-2-carboxamide], the IC50 lay in the range of 200 to 2000 nM. In the case of `CCO[C@H]1CN(c2ccc3c(c2)OC[C@H](NC(=O)c2sc4nc(C)cc(C)c4c2N)C3)C[C@H]1N` [Example 324, 3-amino-N-[(3R)-7-[(3R,4S)-3-amino-4-ethoxypyrrolidin-1-yl]-3,4-dihydro-2H-1-benzopyran-3-yl]-4,6-dimethylthieno[2,3-b]pyridine-2-carboxamide], the IC50 fell in the range of 200 to 2000 nM.

In the case of `CO[C@@]1(C)CN(c2ccc3c(n2)CC[C@H](NC(=O)c2sc4nc(C)cnc4c2N)C3)C[C@@H]1N` [Example 279, 7-amino-N-[(6S)-2-[(3S,4S)-4-amino-3-methoxy-3-methylpyrrolidin-1-yl]-5,6,7,8-tetrahydroquinolin-6-yl]-3-methylthieno[2,3-b]pyrazine-6-carboxamide], the IC50 was more than 2000 nM.

Consider `N#Cc1c(N2CC3CCC(C2)N3)cc2c(c1F)C[C@@H](NC(=O)c1cnc3c(c1)[C@@H]1C[C@@H]1CN3)CO2` [Example 264, (6aS,7aR)-N-[(3R)-6-cyano-7-{3,8-diazabicyclo[3.2.1]octan-3-yl}-5-fluoro-3,4-dihydro-2H-1-benzopyran-3-yl]-5H,6H,6aH,7H,7aH-cyclopropa[c]1,8-naphthyridine-2-carboxamide], for which the IC50 lay in the range of 1 to 50 nM. Take `COC[C@@H]1CN(c2ccc3c(c2)OC[C@H](NC(=O)c2sc4nc(C)cc(C)c4c2N)C3)C[C@@H]1N` [Example 275, 3-amino-N-[(3R)-7-[(3R,4R)-3-amino-4-(methoxymethyl)pyrrolidin-1-yl]-3,4-dihydro-2H-1-benzopyran-3-yl]-4,6-dimethylthieno[2,3-b]pyridine-2-carboxamide]: the IC50 fell in the range of 200 to 2000 nM. With `CO[C@H]1[C@H](N)CN(c2ccc3c(c2)OC[C@H](NC(=O)c2sc4nc(C)ccc4c2N)C3)[C@H]1C` [Example 334, 3-amino-N-[(3R)-7-[(2S,3S,4R)-4-amino-3-methoxy-2-methylpyrrolidin-1-yl]-3,4-dihydro-2H-1-benzopyran-3-yl]-6-methylthieno[2,3-b]pyridine-2-carboxamide], the concentration for half-maximal inhibition (IC50) lay within 1 to 50 nM. Consider `CN[C@H]1CN(c2ccc3c(n2)CC[C@H](NC(=O)c2sc4nc(C)cc(C)c4c2N)C3)C[C@@H]1OC` [Example 312, 3-amino-N-[(6S)-2-[(3S,4S)-3-methoxy-4-(methylamino)pyrrolidin-1-yl]-5,6,7,8-tetrahydroquinolin-6-yl]-4,6-dimethylthieno[2,3-b]pyridine-2-carboxamide], for which the IC50 is more than 2000 nM. On to `CO[C@H]1[C@H](N)CN(c2ccc3c(c2)OC[C@H](NC(=O)c2sc4nc(C)ccc4c2N)C3)[C@@H]1C` [Example 284, 3-amino-N-[(3R)-7-[(2R,3S,4R)-4-amino-3-methoxy-2-methylpyrrolidin-1-yl]-3,4-dihydro-2H-1-benzopyran-3-yl]-6-methylthieno[2,3-b]pyridine-2-carboxamide], for which the concentration for half-maximal inhibition (IC50) was 50 to 200 nM. Consider `COC[C@@]1(C)CN(c2ccc3c(n2)CC[C@H](NC(=O)c2sc4nc(C)ccc4c2N)C3)C[C@@H]1N` [Example 341, 3-amino-N-[(6S)-2-[(3S,4R)-4-amino-3-(methoxymethyl)-3-methylpyrrolidin-1-yl]-5,6,7,8-tetrahydroquinolin-6-yl]-6-methylthieno[2,3-b]pyridine-2-carboxamide], for which the IC50 was in the range of 200 to 2000 nM. For `COC[C@@H]1C[C@H](N)CN1c1ccc2c(c1)OC[C@H](NC(=O)c1sc3nc(C)ccc3c1N)C2` [Example 263, 3-amino-N-[(3R)-7-[(2S,4S)-4-amino-2-(methoxymethyl)pyrrolidin-1-yl]-3,4-dihydro-2H-1-benzopyran-3-yl]-6-methylthieno[2,3-b]pyridine-2-carboxamide], the IC50 fell in the range of 50 to 200 nM.

Consider `COC[C@H]1C[C@@H](N)CN1c1ccc2c(c1)OC[C@H](NC(=O)c1sc3nc(C)ccc3c1N)C2` [Example 262, 3-amino-N-[(3R)-7-[(2R,4R)-4-amino-2-(methoxymethyl)pyrrolidin-1-yl]-3,4-dihydro-2H-1-benzopyran-3-yl]-6-methylthieno[2,3-b]pyridine-2-carboxamide], for which the half-maximal inhibitory concentration (IC50) fell in the range of 200 to 2000 nM. For the molecule `Cc1ccc2c(N)c(C(=O)N[C@H]3COc4cc(N5C[C@H](N)[C@]6(CCO6)C5)ccc4C3)sc2n1` [Example 340, 3-amino-N-[(3R)-7-[(4S,8S)-8-amino-1-oxa-6-azaspiro[3.4]octan-6-yl]-3,4-dihydro-2H-1-benzopyran-3-yl]-6-methylthieno[2,3-b]pyridine-2-carboxamide], the IC50 fell in the range of 200 to 2000 nM. For `CN[C@H]1CN(c2ccc3c(n2)CC[C@H](NC(=O)c2sc4nc(C)ccc4c2N)C3)C[C@@]1(C)O` [Example 331, 3-amino-N-[(6S)-2-[(3R,4S)-3-hydroxy-3-methyl-4-(methylamino)pyrrolidin-1-yl]-5,6,7,8-tetrahydroquinolin-6-yl]-6-methylthieno[2,3-b]pyridine-2-carboxamide], the IC50 is more than 2000 nM. With `CO[C@H]1CN(c2ccc3c(n2)CC[C@H](NC(=O)c2sc4nc(C)cc(C)c4c2N)C3)C[C@@H]1NC(C)=O` [Example 293, 3-amino-N-[(6S)-2-[(3S,4S)-3-acetamido-4-methoxypyrrolidin-1-yl]-5,6,7,8-tetrahydroquinolin-6-yl]-4,6-dimethylthieno[2,3-b]pyridine-2-carboxamide], the half-maximal inhibitory concentration (IC50) was more than 2000 nM. For `Cc1ccc2c(N)c(C(=O)N[C@H]3COc4cc(N5C[C@@H](N)[C@]6(CCCO6)C5)ccc4C3)sc2n1` [Example 309, 3-amino-N-[(3R)-7-[(5S,9R)-9-amino-1-oxa-7-azaspiro[4.4]nonan-7-yl]-3,4-dihydro-2H-1-benzopyran-3-yl]-6-methylthieno[2,3-b]pyridine-2-carboxamide], the IC50 was in the range of 50 to 200 nM. With `COC[C@H]1CN(c2nc3c(cc2F)C[C@@H](NC(=O)c2sc4nc(C)ccc4c2N)CC3)C[C@H]1N` [Example 301, 3-amino-N-[(6S)-2-[(3S,4S)-3-amino-4-(methoxymethyl)pyrrolidin-1-yl]-3-fluoro-5,6,7,8-tetrahydroquinolin-6-yl]-6-methylthieno[2,3-b]pyridine-2-carboxamide], the concentration for half-maximal inhibition (IC50) was more than 2000 nM.

For the origin of these results see patent US11524966B1 (Valo Early Discovery, Inc., priority 2017, dated 2022).
